Experimental data reported in patent US20040180925A1, “Dipeptidylpeptidase-IV inhibitor” (priority 2000, published 2004).
pIC50: −log10 of the molar value. Structures can show the parent of a compound that is named as a salt.

How the values were obtained:
DPP-IV = biological target: T1, DPP-IV (Rattus norvegicus, UniProt P14740); assay: Test for inhibitory action against DPP-IV (rat serum, Gly-Pro-AMC fluorescence); format: biochemical; settings: Gly-Pro-AMC 50 μmol/L, pH 7.8, room temperature 20 minutes
T1 construct: The coagulated blood was centrifuged at 3,000 rpm for 20 minutes to separate serum for use in the experiment; from tissue; host or cells: rat serum (blood from the crural aorta, coagulated and centrifuged)
T1 sequence (P14740 37-767 limits assumed): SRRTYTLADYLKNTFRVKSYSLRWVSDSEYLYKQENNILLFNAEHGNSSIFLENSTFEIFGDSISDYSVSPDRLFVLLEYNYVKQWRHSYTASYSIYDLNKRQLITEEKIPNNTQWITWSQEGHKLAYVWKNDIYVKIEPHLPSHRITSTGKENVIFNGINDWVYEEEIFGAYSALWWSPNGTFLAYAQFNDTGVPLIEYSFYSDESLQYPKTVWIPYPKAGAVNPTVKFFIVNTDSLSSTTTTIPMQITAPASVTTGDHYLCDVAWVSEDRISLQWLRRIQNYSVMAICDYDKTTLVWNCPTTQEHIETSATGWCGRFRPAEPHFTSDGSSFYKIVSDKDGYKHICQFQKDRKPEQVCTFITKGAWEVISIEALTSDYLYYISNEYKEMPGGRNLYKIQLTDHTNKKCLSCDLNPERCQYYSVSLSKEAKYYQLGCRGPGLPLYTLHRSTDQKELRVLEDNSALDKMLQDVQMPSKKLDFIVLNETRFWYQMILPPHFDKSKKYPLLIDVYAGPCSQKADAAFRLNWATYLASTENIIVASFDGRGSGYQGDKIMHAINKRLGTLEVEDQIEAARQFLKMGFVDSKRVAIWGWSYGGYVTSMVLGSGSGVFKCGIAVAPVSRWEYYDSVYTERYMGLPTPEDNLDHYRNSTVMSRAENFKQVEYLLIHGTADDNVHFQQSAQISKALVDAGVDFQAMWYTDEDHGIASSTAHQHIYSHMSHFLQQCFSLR
Description: Under mild anesthesia with diethylether, a rat was incised at lower left side of the limb, and the crural aorta was cut and blood was collected. The collected blood was immediately ice-cooled. The coagulated blood was centrifuged at 3,000 rpm for 20 minutes to separate serum for use in the experiment. As reaction buffer, an aqueous solution containing HEPES (final concentration of 25 mmol/L) and sodium chloride (final concentration of 140 mmol/L) was prepared so as to give a final pH of 7.8, and used after addition of BSA (final concentration of 1%). An assay was conducted using a black, flat-bottomed 96 well plate. A test sample (2 μL) was added to each well, and the sample was added with rat serum (25 u L) and reaction buffer (25 u L) containing magnesium chloride (80 mmol/L), and the mixture was left stand at room temperature for 5 minutes. Then, a reaction was initiated by the addition of 50 u L of a solution of Gly-Pro-AMC (AMC: 7-amino-4-methylcoumarin) (final concentration of 50 μmol/L) to each well, and the mixture was left stand in the dark at room temperature for 20 minutes. AMC, which was released by DPP-IV activity, was quantified by measurement of fluorescence at 460 nm which was excited at 390 nm. DPP-IV activity was calculated according to the following equation:
Inhibitory activity against DPP-IV=100×{1−(Fs−F0)/(F100−F0)}
F100: Fluorescence intensity of AMC with addition of serum
F0: Fluorescence intensity of AMC without addition of serum
Fs: Fluorescence intensity of AMC with addition of a sample and serum

Wistar male rats [1] = assay: Suppressing effect on increase of blood sugar after oral glucose loading (Test Example 2); format: in vivo, rat; settings: Wistar male rats fasted 24 hours, 30 mg/kg po
Description: Blood-sugar levels of Wistar male rats (9-week old, Charles river) fasted for 24 hours were measured. A test compound was orally administered to the rats in a dose of […], and then immediately glucose (2 g/kg) was orally administered to the rats. After 30 minutes from the glucose loading, blood-sugar levels were further measured to evaluate suppressing effects of test compounds on increase of blood sugar. The blood-sugar levels were measured by a portable apparatus for measurement of blood sugar [Blood glucose meter, Dexter-Z (Bayer. Sankyo, Tokyo)]. The test compounds were dissolved in 0.5% methylcellulose 400 for administration. The results are shown in Table 3 (** indicates p<0.01 in Student's t-test).

Wistar male rats [2] = assay: Suppressing effect on increase of blood sugar after oral glucose loading (Test Example 3, glucose oxidase method); format: in vivo, rat; settings: Wistar male rats fasted 24 hours, 1 mg/kg po; for Blood-sugar level, 0 minute: 0 minute (before glucose loading); for Blood-sugar level, 30 minutes after glucose loading: glucose 2 g/kg po
Description: Blood-sugar levels of Wistar male rats (10-week old, Charles river) fasted for 24 hours were measured. A test compound was orally administered to the rats in a dose of 1 mg/kg, and then immediately glucose (2 g/kg) was orally administered to the rats. After 30 minutes from the glucose loading, blood-sugar levels were further measured to evaluate suppressing effects of test compounds on increase of blood sugar. The sugar levels were measured by the glucose oxidase method [Clin. Chem., 6, 466 (1960); J. Clin. Path., 22, 246 (1969); Clin. Chem. Acta, 40, 115 (1972); Clin. Chem., 20, 606 (1974) or the like]. The test compounds were dissolved in 0.5% methylcellulose 400 for administration.

Row | SMILES | pIC50 (DPP-IV) | other results
1 | N#C[C@@H]1CCCN1C(=O)CNCCNc1cnc2ccccc2n1 [Compound 103, (S)-1-[2-(2-Quinoxalinylamino)ethylamino]acetyl-2-pyrrolidinecarbonitrile dihydrochloride] | 7.21 | 
2 | N#Cc1cccnc1NCc1ccc(CNCC(=O)N2CCC[C@H]2C#N)cc1 [Compound 201, (S)-1-{4-[(3-Cyano-2-pyridyl)aminomethyl]benzylamino}acetyl-2-pyrrolidinecarbonitrile oxalate] | 6.41 | 
3 | CC1(NCC(=O)N2CCC[C@H]2C#N)CCN(c2ccc(C#N)cn2)CC1 [Compound 207, (S)-1-[1-(5-Cyano-2-pyridyl)-4-methyl-4-piperidylamino]acetyl-2-pyrrolidinecarbonitrile dihydrochloride] | 7.82 | 
4 | CC(C)(CNc1nccs1)NCC(=O)N1CCC[C@H]1C#N [Compound 226, (S)-1-[2-Methyl-1-(2-thiazolylamino)-2-propylamino]acetyl-2-pyrrolidinecarbonitrile fumarate] | 7.74 | 
5 | CC1(NCC(=O)N2CCC[C@H]2C#N)CCN(c2ccccn2)CC1 [Compound 238, (S)-1-[4-Methyl-1-(2-pyridyl)-4-piperidylamino]acetyl-2-pyrrolidinecarbonitrile dihydrochloride] | 7.96 | 
6 | N#C[C@@H]1CCCN1C(=O)CNCCNC(=O)c1ccccc1 [Compound 403, (S)-1-(2-Benzamidoethylamino)acetyl-2-pyrrolidinecarbonitrile hydrochloride] | 6.91 | 
7 | N#C[C@@H]1CCCN1C(=O)CNC1CCN(S(=O)(=O)c2ccccc2)CC1 [Compound 407, (S)-1-(1-Benzenesulfonyl-4-piperidylamino)acetyl-2-carbonitrile methanesulfonate] | 7.70 | 
8 | CCN(C)S(=O)(=O)c1ccc(NCC(C)(C)NCC(=O)N2CCC[C@H]2C#N)nc1 [Compound 513, (S)-1-{1-[5-(N-Ethyl-N-methylaminosulfonyl)-2-pyridylamino]-2-methyl-2-propylamino}acetyl-2-pyrrolidinecarbonitrile] |  | Blood-sugar level, 0 minute (Wistar male rats [2]): 109 ± 6 mg/dL; Blood-sugar level, 30 minutes after glucose loading (Wistar male rats [2]): 252 ± 22 mg/dL
9 | N#Cc1ccc(NCC2(NC(=O)CN3CCC[C@H]3C#N)CCCC2)nc1 [Compound 602, 1-[(5-Cyanopyridin-2-ylamino)methyl]-1-[(S)-2-cyanopyrrolidinylacetylamino]cyclopentane fumarate] | 7.39 | 
10 | CC(C)(CNc1ccc(C#N)cc1)NCC(=O)N1CCC[C@H]1C#N [Compound 703, (S)-1-[1-(4-Cyanoanilino)-2-methyl-2-propylamino]acetyl-2-carbonitrile fumarate] | 7.28 | 

More lines, in order of rising pIC50 (DPP-IV), values ahead:

Row | pIC50 (DPP-IV) | SMILES | other results
11 | 7.47 | CC(C)(CNc1ccc(S(=O)(=O)NCCO)cn1)NCC(=O)N1CCC[C@H]1C#N [Compound 524, (S)-1-{1-{5-[N-(2-Hydroxyethyl)aminosulfonyl]-2-pyridylamino}-2-methyl-2-propylamino}acetyl-2-pyrrolidinecarbonitrile] | 
12 | 7.51 | N#C[C@@H]1CCCN1C(=O)CNCCNc1cnccn1 [Compound 101, (S)-1-[2-(2-Pyrazinylamino)ethylamino]acetyl-2-pyrrolidinecarbonitrile dimethanesulfonate] | blood sugar level, 0 minute (Wistar male rats [1]; 0 minute (before glucose loading)): 68 ± 2 mg/dL; blood sugar level, 30 minutes after glucose loading (Wistar male rats [1]; glucose 2 g/kg po, 30 minutes, ** p<0.01 Student's t-test): 104 ± 4** mg/dL
13 | 7.57 | CC(C)(CNc1ccc(C(N)=O)cn1)NCC(=O)N1CCC[C@H]1C#N [Compound 221, (S)-1-[1-(5-Carbamoyl-2-pyridylamino)-2-methyl-2-propylamino]acetyl-2-pyrrolidinecarbonitrile] | 
14 | 7.59 | CC1(NCC(=O)N2CCC[C@H]2C#N)CCN(c2ccc(S(=O)(=O)N3CC=CC3)cn2)CC1 [Compound 529, (S)-1-{4-Methyl-1-[5-(3-pyrrolin-1-ylsulfonyl)-2-pyridyl]-4-piperidylamino}acetyl-2-pyrrolidinecarbonitrile] | 
15 | 7.64 | CN(C)S(=O)(=O)c1ccc(NCC(C)(C)NCC(=O)N2CCC[C@H]2C#N)nc1 [Compound 501, (S)-1-{1-[5-(N,N-Dimethylaminosulfonyl)-2-pyridylamino]-2-methyl-2-propylamino}acetyl-2-pyrrolidinecarbonitrile] | Blood-sugar level, 0 minute (Wistar male rats [2]): 95 ± 7 mg/dL; Blood-sugar level, 30 minutes after glucose loading (Wistar male rats [2]): 182 ± 16 mg/dL
16 | 7.72 | CC1(NCC(=O)N2CCC[C@H]2C#N)CCN(c2ncccn2)CC1 [Compound 233, (S)-1-[4-Methyl-1-(2-pyrimidinyl)-4-piperidylamino]acetyl-2-pyrrolidinecarbonitrile] | Blood-sugar level, 0 minute (Wistar male rats [2]): 93 ± 15 mg/dL; Blood-sugar level, 30 minutes after glucose loading (Wistar male rats [2]): 183 ± 8 mg/dL
